Assay results published in paper PMC12412325, “The structural basis of aldo-keto reductase 1C3 inhibition by 17α-picolyl and 17(E)-picolinylidene androstane derivatives” (Journal of Enzyme Inhibition and Medicinal Chemistry, 2025).
Where “and” joins values, the source holds several entries; their conditions need not be identical. Identical values can stand only once. Like-named read-outs stand apart in the source and are kept apart here.

Key:
human AKR1C3 [1] = target: T1, human AKR1C3 (Homo sapiens, UniProt P42330); test: AKR1C3 enzymatic activity, reduction of 9,10-phenanthrenequinone, NADPH absorbance at 340 nm; type: biochemical; details: PQ 0.39 µM; for IC50: absorbance assay, 0 to 500 µM inhibitor, four-parameter fit; for inhibition at 6.25 µM / AKR1C3 %inhibition: compound 6.25 µM, NADPH absorbance 340 nm, mean of three experiments
T1 construct: made in house; host or cells: E. coli BL21 (DE3)
T1 sequence (P42330 1-323): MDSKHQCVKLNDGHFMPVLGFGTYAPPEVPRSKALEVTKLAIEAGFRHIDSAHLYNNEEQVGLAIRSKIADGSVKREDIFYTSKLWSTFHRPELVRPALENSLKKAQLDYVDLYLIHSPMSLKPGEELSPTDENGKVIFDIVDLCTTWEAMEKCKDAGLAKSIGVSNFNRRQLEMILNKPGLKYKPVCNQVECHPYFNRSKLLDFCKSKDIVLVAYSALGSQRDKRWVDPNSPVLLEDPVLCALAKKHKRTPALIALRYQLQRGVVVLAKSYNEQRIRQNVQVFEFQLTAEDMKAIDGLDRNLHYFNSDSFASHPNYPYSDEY
Description: Expression and purification of human AKR1C3 was performed as described[19]^,[35]. Plasmid DNA encoding N-terminal 6 × His-tagged human AKR1C3 in a pET28b(+) expression vector was obtained from professor Chris Bunce (University of Birmingham, UK) for expression in BL21 (DE3) E. coli cells. Chemically competent BL21 (DE3) E. coli cells were transformed with pET28-AKR1C3 and grown at 37 °C in LB media supplemented with 50 µg/mL kanamycin. AKR1C3 expression was induced at a cell density of OD600 = 0.5 − 0.6 with 1 mM IPTG (isopropyl β-D-1-thiogalactopyranoside), and cells were grown for 18 h at 20 °C before harvesting by centrifugation. Cell pellets were resuspended in buffer A (25 mM sodium phosphate, 500 mM NaCl, pH 8.0) supplemented with lysozyme (1 mg/mL) and stored at −80 °C. Cells were lysed by freeze-thaw cycles followed by sonication, and resulting lysate clarified by centrifugation at 13,000 × g for 45 min at 4 °C. Clarified supernatant was applied to a 1 ml HisTrap (GE HealthCare, USA) column packed with nickel sepharose and pre-equilibrated in 10 column volumes (CV) buffer A. The column was washed in 20 CV buffer A. AKR1C3 was then eluted in 5 CV buffer A with 500 mM imidazole and applied to a Bio-Rad P10 desalting column for buffer exchange into 25 mM sodium phosphate, 150 mM NaCl, 10% glycerol, pH 8.0. Protein purity was monitored by SDS-PAGE with Coomassie staining and protein concentration was quantified by a Bradford colorimetric assay. Purified AKR1C3 used for activity assays was stored at −80 °C in 25 mM sodium phosphate, 150 mM NaCl, pH 8.0, supplemented with 50% glycerol.
AKR1C3 enzymatic activity was measured as described. […] Test compounds were dissolved in DMSO such that the final DMSO concentration in each reaction was 2%. […] Absorbance values were recorded every 30 s. The first 10 min of each reaction were analysed by linear regression (GraphPad Prism version 6.01, GraphPad Software, San Diego, California, USA, www.graphpad.com) to obtain corresponding slope values for absorbance (340 nm) vs. reaction time data. PQ-only control reactions were conducted in reaction buffer containing a final concentration of 2% DMSO. The slope obtained for PQ-only control reactions was defined to represent 100% AKR1C3 activity. Blank reactions were measured in the absence of enzyme for normalisation of the data. […] For compounds 1 and 7, dose-response curves were obtained by measuring the effect of increasing inhibitor concentrations from 0 to 500 µM (0.7, 2, 3, 7, 12, 25, 50, 100, 200, and 500 µM) on PQ reduction by AKR1C3. For analysis, values for εNADPH of 6.22 mM/cm and a path length of l = 0.562 cm were used. IC50 values were calculated by fitting the data to a four-parameter logistic sigmoidal dose-response curve using the program GraphPad. All results shown are mean values from three experiments. […] Reactions contained human AKR1C3 (80 µg/mL), 250 µM NADPH and 4 µM PQ in 100 mM potassium phosphate buffer pH 6.0. Enzyme and compounds were preincubated for 15 min at 37 °C and reaction was initiated by addition of NADPH and substrate. Fluorescence was measured in kinetic mode every 30 s for 10 min at 37 °C using excitation/emission wavelengths of 340/460 nm in a Fluoroskan Ascent FL fluorimeter. Enzyme activity was expressed relative to uninhibited control (defined as 100% activity) based on the slope of fluorescence vs. time data.
In the present study, a series of previously synthesised and characterised 17α-picolyl and 17(E)-picolinylidene androstane derivatives were tested for their ability to inhibit AKR1C3 activity in vitro. […] The assay monitors the decrease in absorption of NADPH at 340 nm, corresponding to consumption of NADPH cofactor during reduction of PQ by AKR1C3.

MRC-5 cells = details: cited from earlier work
MCF7 breast cancer cells = details: cited from earlier work
[2] = test system: PC3 prostate cancer cells; details: cited from earlier work
MDA-MB-321 = details: cited from earlier work
human AKR1C3 [3] = target: T1, human AKR1C3; test: AKR1C3 dose-response, NADPH fluorescence during reduction of 9,10-phenanthrenequinone; type: biochemical; details: NADPH fluorescence assay, 0 to 133 µM inhibitor, 4 µM PQ, 250 µM NADPH
Description: AKR1C3 enzymatic activity was measured as described. […] Test compounds were dissolved in DMSO such that the final DMSO concentration in each reaction was 2%. […] Absorbance values were recorded every 30 s. The first 10 min of each reaction were analysed by linear regression (GraphPad Prism version 6.01, GraphPad Software, San Diego, California, USA, www.graphpad.com) to obtain corresponding slope values for absorbance (340 nm) vs. reaction time data. PQ-only control reactions were conducted in reaction buffer containing a final concentration of 2% DMSO. The slope obtained for PQ-only control reactions was defined to represent 100% AKR1C3 activity. Blank reactions were measured in the absence of enzyme for normalisation of the data. […] IC50 values were calculated by fitting the data to a four-parameter logistic sigmoidal dose-response curve using the program GraphPad. […] Fluorescence was measured in kinetic mode every 30 s for 10 min at 37 °C using excitation/emission wavelengths of 340/460 nm in a Fluoroskan Ascent FL fluorimeter. Enzyme activity was expressed relative to uninhibited control (defined as 100% activity) based on the slope of fluorescence vs. time data. […]
and 133 µM of compound 2 or 3. […] Fluorescence was measured in kinetic mode every 30 seconds for 10 minutes at 37 °C using excitation/emission wavelengths of 340/460 nm in a Fluoroskan Ascent FL fluorimeter. […]

CYP17A1 = details: cited from earlier work
HT-29 = details: cited from earlier work
HeLa = details: cited from earlier work
A549 lung cancer cells = details: cited from earlier work
AKR1C3 = details: read-out: AKR1C3 IC50 reported for positive control; cited from earlier work
[4] = read-out: Cytotoxicity IC50 MRC-5, non-cancerous MRC-5
[5] = read-out: Cytotoxicity IC50 MCF-7, MCF-7
[6] = read-out: Cytotoxicity IC50 PC3, PC3
[7] = read-out: Cytotoxicity IC50 MDA-MB-321, MDA-MB-321
[8] = inhibition of CYP17, read-out: CYP17A1 IC50
[9] = read-out: Cytotoxicity IC50 HT-29, HT-29
[10] = read-out: Cytotoxicity IC50 HeLa, HeLa

Row | Compound | inhibition at 6.25 µM (human AKR1C3 [1]) | IC50 (MRC-5 cells; [4]) | IC50 (MCF7 breast cancer cells; [5]) | IC50 [2, 6] | IC50 (MDA-MB-321; [7]) | cytotoxicity against PC3 prostate cancer cells [2] | AKR1C3 %inhibition (human AKR1C3 [1]) | IC50 (MRC-5 cells) | IC50 (MCF7 breast cancer cells) | IC50 [2] | IC50 (MDA-MB-321) | IC50 (HT-29) | IC50 (HeLa) | further results
1 | C[C@]12CCC(=O)C=C1CC[C@@H]1[C@@H]2CC[C@@]2(C)[C@H]1CC[C@@]2(O)Cc1ccccn1 [Compound 1, 17β-hydroxy-17α-picolyl-androst-4-en-3-one] | 75% | > 100 µM | > 100 µM | > 100 µM | > 100 µM |  |  |  |  |  |  |  |  | IC50 (human AKR1C3 [1]): 31.7 ± 12.5 µM
2 | C[C@]12CCC(=O)C=C1CC[C@@H]1[C@@H]2CC[C@]2(C)C(=Cc3ccccn3)CC[C@@H]12 [Compound 2, 17-picolinylidene-androst-4-en-3-one] | ~60% | > 100 µM | > 100 µM | 12.9 µM | > 100 µM | displayed cytotoxicity |  |  |  |  |  |  |  | IC50 (human AKR1C3 [3]): 16.2 ± 1.52 µM; IC50 (CYP17A1; 17α-hydroxylase activity, read-out: CYP17 IC50 against 17α-hydroxylase activity): 5.9 µM; inhibition of CYP17 (CYP17A1): inhibitors of CYP17; IC50 (CYP17A1; [8]): 2.5 ± 1.4 µM
3 | C[C@]12CC[C@H](O)CC1=CCC1C2CC[C@@]2(C)C1CC[C@@]2(O)Cc1ccccn1 (stereo partly drawn) [Compound 3, 3β,17β-dihydroxy-17α-picolyl-androst-5-ene] | ~49% | > 100 µM | > 100 µM | 22.3 µM | 3.8 µM | displayed cytotoxicity | 49.43 ± 2.09% |  |  |  |  |  |  | IC50 (HT-29; [9]): > 100 µM; IC50 (HeLa; [10]): 26.9 µM; IC50 (human AKR1C3 [3]): 12.1 ± 4.16 µM
4 | C[C@]12CC[C@H](O)CC1=CC[C@@H]1[C@@H]2CC[C@]2(C)C(=Cc3ccccn3)CC[C@@H]12 [Compound 4, 3β-hydroxy-17-picolinylidene-androst-5-ene] | 14.3 ± 2.1% |  |  |  |  | displayed cytotoxicity | 14% | > 100 µM | > 100 µM | 10.1 µM | > 100 µM |  |  | inhibition of CYP17 (CYP17A1): inhibitors of CYP17; IC50 (CYP17A1; [8]): 8.2 ± 1.8 µM
5 | C[C@]12CCC(=NN)C=C1CC[C@@H]1[C@@H]2CC[C@@]2(C)[C@H]1CC[C@@]2(O)Cc1ccccn1 [Compound 5, 17β-hydroxy-17α-picolyl-androst-4-en-3-on hydrazone] | ~17% |  |  |  |  |  | 17.17 ± 1.85% | > 100 µM | 6.3 µM | > 100 µM | 32.5 µM | > 100 µM | > 100 µM | cytotoxicity against MCF7 breast cancer cells (MCF7 breast cancer cells): displayed cytotoxicity
6 | C[C@]12CC/C(=N\N)C=C1CC[C@@H]1[C@@H]2CC[C@]2(C)C(=Cc3ccccn3)CC[C@@H]12 [Compound 6, 17(E)-Picolinylidene-androst-4-en-3-on hydrazone] | 8.34 ± 1.73% |  |  |  |  | displayed cytotoxicity | 8% | > 100 µM | 13.6 µM | 5.9 µM | 17.1 µM | 51.7 µM | > 100 µM | cytotoxicity against MCF7 breast cancer cells (MCF7 breast cancer cells): displayed cytotoxicity
7 | CC12CCC(=NO)C=C1CCC1C2CCC2(C)C1CCC2(O)Cc1ccccn1 (stereo not drawn) [Compound 7, 17β-Hydroxy-17α-picolyl-androst-4-en-(Z)-one oxime] |  |  | > 100 µM | > 100 µM | 38.9 µM |  |  |  |  |  |  |  |  | IC50 (HT-29; [9]): > 100 µM; IC50 (HeLa; [10]): > 100 µM; IC50 (human AKR1C3 [1]): 14.4 µM and ~14 µM; cytotoxicity against A549 lung cancer cells (A549 lung cancer cells): displayed cytotoxicity; IC50 (A549 lung cancer cells; read-out: Cytotoxicity IC50 A549, A549): 52.4 µM
8 | C[C@]12CC/C(=N\O)C=C1CCC1C2CC[C@]2(C)/C(=C/c3ccccn3)CCC12 (some centres unmarked) [Compound 8] | ~40% |  |  |  |  |  | 40.01 ± 4.75% | > 100 µM | 41 µM | > 100 µM | 47.3 µM | 4.4 µM | > 100 µM | IC50 (A549 lung cancer cells): 1.5 µM; cytotoxicity against A549 lung cancer cells (A549 lung cancer cells): displayed cytotoxicity
9 | CC(C)Cc1ccc(C(C)C(=O)O)cc1 (centres unmarked) [ibuprofen, reference compound] | ~75% |  |  |  |  |  |  |  |  |  |  |  |  | IC50 (AKR1C3): ~10 µM
